Results reported in patent US20090044291A1, “DROUGHT-RESISTANT PLANTS AND METHOD FOR PRODUCING THE PLANTS” (D-Helix, priority 2006, published 2009).
pKd: −log10 of the molar value. Like-named read-outs stand apart in the source and are kept apart here.

What was measured:
[1] = biological target: T1, natural ABAR/CHLH protein (Arabidopsis thaliana, UniProt Q9FNB0); assay: ABA binding assay with crude extracts of leaves (WT, RNAi, OE lines)
T1 construct: 50 μg proteins of the crude extracts from two-week-old Arabidopsis seedlings; from tissue; host or cells: crude extracts of two-week-old Arabidopsis seedlings / leaves of gl1 (WT), RNAi line 12 and overexpressor line 1
T1 sequence (Q9FNB0 50-1381): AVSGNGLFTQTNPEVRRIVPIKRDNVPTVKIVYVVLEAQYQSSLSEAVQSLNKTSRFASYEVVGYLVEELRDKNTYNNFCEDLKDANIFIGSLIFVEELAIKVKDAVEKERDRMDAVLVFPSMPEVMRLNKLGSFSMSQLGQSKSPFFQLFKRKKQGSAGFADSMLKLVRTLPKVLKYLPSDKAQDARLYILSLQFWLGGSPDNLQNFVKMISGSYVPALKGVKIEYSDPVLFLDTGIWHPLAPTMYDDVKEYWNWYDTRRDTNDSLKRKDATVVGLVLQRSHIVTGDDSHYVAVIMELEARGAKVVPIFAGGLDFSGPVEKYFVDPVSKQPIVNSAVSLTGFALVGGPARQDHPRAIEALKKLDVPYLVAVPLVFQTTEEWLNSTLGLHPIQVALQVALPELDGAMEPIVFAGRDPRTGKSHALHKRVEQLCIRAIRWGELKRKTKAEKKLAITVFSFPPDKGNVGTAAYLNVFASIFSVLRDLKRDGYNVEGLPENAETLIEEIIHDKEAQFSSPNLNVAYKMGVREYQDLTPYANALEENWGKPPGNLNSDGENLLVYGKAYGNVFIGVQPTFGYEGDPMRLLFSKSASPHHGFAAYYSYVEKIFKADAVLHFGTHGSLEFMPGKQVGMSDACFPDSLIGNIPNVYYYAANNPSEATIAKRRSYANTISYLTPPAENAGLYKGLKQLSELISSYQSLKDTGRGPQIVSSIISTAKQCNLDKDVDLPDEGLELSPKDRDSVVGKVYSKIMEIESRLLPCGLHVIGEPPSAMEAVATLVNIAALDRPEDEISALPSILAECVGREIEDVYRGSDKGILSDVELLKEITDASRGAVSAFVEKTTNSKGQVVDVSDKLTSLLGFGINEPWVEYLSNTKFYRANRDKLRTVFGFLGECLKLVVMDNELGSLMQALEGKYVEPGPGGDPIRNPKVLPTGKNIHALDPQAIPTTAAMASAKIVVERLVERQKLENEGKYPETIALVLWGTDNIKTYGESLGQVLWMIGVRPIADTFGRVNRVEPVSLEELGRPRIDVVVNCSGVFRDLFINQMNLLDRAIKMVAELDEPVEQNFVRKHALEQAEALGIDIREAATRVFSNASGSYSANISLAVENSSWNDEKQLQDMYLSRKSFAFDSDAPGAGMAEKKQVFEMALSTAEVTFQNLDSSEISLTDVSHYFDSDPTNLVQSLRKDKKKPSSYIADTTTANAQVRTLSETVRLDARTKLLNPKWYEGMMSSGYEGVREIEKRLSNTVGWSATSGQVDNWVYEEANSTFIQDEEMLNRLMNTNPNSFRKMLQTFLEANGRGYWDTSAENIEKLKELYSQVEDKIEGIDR
Description: (§1) The ABA-binding activity of ABAR was assayed according to the previously described procedures (Zhang, D. P. et al., Plant physiol. 128:714-725 (2002)) with modifications. The binding medium (medium A) contained 50 mM Tris-HCl (pH 7.0), 2 mM MgCl2, 1 mM CaCl2, and 250 mM mannitol. The medium for extracting the Arabidopsis natural ABAR/CHLH protein (medium B) was the medium A supplemented with 2 mM 1,4-dithiothreitol (DTT), 1 mM phenylmethyl sulfonyl fluoride (PMSF), […] leupeptin, and […] pepstin A but minus 250 mM mannitol. [^3H](+)ABA (American Radiolabeled Chemicals, 2.37×10^12 Bq mmol^−1, purity 98.4%) at 30 nM, or at a step gradient of concentrations from 0 to 70 nM (when analyzing ABA binding kinetics, see FIG. 1a, d1), together with 2 μg purified yeast-expressed ABAR/CHLH protein or 50 μg proteins of the crude extracts from two-week-old Arabidopsis seedlings, was added into the medium A. The total volume for the binding assays was adjusted to 200 μl. The mixtures were incubated at 25° C. for 30 min, and then quickly placed on ice. Following the addition of 100 μl 0.5% (w/v) Dextran T70-coated charcoal (DCC) to remove the free [^3H]ABA by adsorption, the mixtures were maintained on ice for 5 min, and then centrifuged to remove DCC before the radioactivity in the supernatant was counted. The specific binding was determined by the difference between the radioactivity bound to the immuno-purified ABAR protein or crude extracts of Arabidopsis seedlings incubated only with [^3H]ABA (total binding) and radioactivity bound in the presence of 1,000-fold molar excess of unlabeled (+)-ABA (Sigma; non-specific binding. Non-specific binding in all the assays was lower than 10% of the total binding, see FIG. 1a, d1). The unlabeled ABA was added into the incubation medium at the same time with [^3H]ABA. The ABA-binding activity of the crude ABA-binding protein from Arabidopsis seedling was expressed as the number of nanomoles of [^3H]ABA specifically bound per gram of protein, and that of the immuno-purified ABAR protein as the number of moles of [^3H]ABA per mole of protein. The stereo-specificity of the ABA-binding was assayed as described previously (Zhang, D. P. et al., Plant physiol. 128:714-725 (2002)). […] The conditions of incubation were the same as described above (the incubation medium containing 30 nM [^3H]ABA), and the two ABA isomers and (+)-ABA were assayed in the concentrations ranging from 1 to 1000-fold molar excess of [^3H]ABA.
For the assays of ABA binding in transgenic ABAR-RNAi and -overexpressor plants, we used more than three lines for each type of the transgenic plants and the results obtained were similar. Thus, only were the data with RNAi line 12 and overexpressor line 1 (see FIG. 5) shown in the text.

[2] = biological target: T2, Arabidopsis ABAR/CHLH (H subunit of Mg-chelatase) (Arabidopsis thaliana, UniProt Q9FNB0); assay: ABA binding assay with purified yeast-expressed ABAR/CHLH
T2 construct: 6xHis; made in house; host or cells: Pichia methanolica (Pichia Methanolica Expression kit, Invitrogen)
T2 sequence (Q9FNB0 50-1381): T1 sequence (Q9FNB0 50-1381)
Description: Full-length ABAR/CHLH coding sequence was PCR-amplified with forward primer 5′-[…]-3′ (SEQ ID NO:30) and reverse primer 5′-[…]-3′ (SEQ ID NO:31). The recombinant ABAR/CHLH was expressed in yeast as a fusion protein with a 6×His (SEQ ID NO:32) tag by using Pichia Methanolica Expression kit (Invitrogen) and the fusion protein was affinity-purified according to manufacturer's instructions.
as §1

Compound: CC1=CC(=O)CC(C)(C)C1(O)/C=C/C(C)=C\C(=O)O (stereo not drawn) [ABA, abscisic acid]
- pKd ([1]; across WT, RNAi and overexpressing leaf extracts, read-out: Kd): 7.42 to 7.46
- Bmax ([1]; leaf extracts of RNAi transgenic plants): 25 nmol/g
- pKd ([1]; leaf extracts of RNAi transgenic plants, read-out: Kd): 7.44
- Bmax ([1]; leaf extracts of overexpressors of ABAR/CHLH gene (OE, line 1)): 80 nmol/g
- pKd ([1]; leaf extracts of overexpressors of ABAR/CHLH gene (OE, line 1), read-out: Kd): 7.42
- Bmax (maximum binding) ([1]; leaf extracts of wild-type plants (WT)): 60 nmol ABA g^−1 crude protein
- pKd ([1]; leaf extracts of wild-type plants (WT), read-out: Kd (equilibrium dissociation constant)): 7.46
- pKd [2]: 7.49
- maximum binding (Bmax) ([2]; pure yeast-expressed ABAR, Scatchard plot): 1.28 mol ABA per mol of protein
